US6001810A, “Methods for treating retroviral infection” (Eli Lilly and Company, priority 1990, dated 1999)
Values after ≈ are worked out from the molar mass of the structure shown. Each block holds one compound with its values, some of them ahead of it. Non-standard residues stand in square brackets, D forms with d. Residues, ends and D or L forms follow the SMILES beside them. *: point of attachment. Phe(4-NH2) = Nc1ccc(C[C@H](N)C(=O)O)cc1; 1Nal = N[C@@H](Cc1cccc2ccccc12)C(=O)O; Sta = CC(C)C[C@H](N)[C@@H](O)CC(=O)O; Isovaleryl = CC(C)CC(=O)*

Legend:
[1] = tested on: CEM cells; format: cell-based
Method: (§1) Quantitative evaluation of the viral inhibition were performed on the T-cell lymphoblastoid cell lines MT-2 (Harada et al., 1985, Science 229:563-566) and CEM (Nara and Fischinger, 1988, Nature 332:469-470). The cells were infected with the HTLV-IIIB strain of HIV-1 from the supernatant fluid of infected human T-lymphocyte cell line H9 (Popovic, M. et al., 1984, Science 224:497-500). Each of these three cell lines are publicly available from the National Institutes of Health (NIH) AIDS Research and Reference Reagent Program. The H9/HTLC-IIIB cell line is available under catalogue number 231, while CEM cell line is available under catalogue number 117 and the MT-2 cell line is available under the catalogue number 237. MT-2 and CEM cells were grown in RPMI 1640 medium supplemented with 10% (v/v) fetal calf serum, 100 U/ml penicillin, 100 μg/ml streptomycin and 25 mM HEPEs buffer. H9 cells were grown in the same medium except 20% fetal calf serum was used. The peptides were diluted in the medium used for MT-2 and CEM cells. Cell cultures were maintained in disposable tissue culture labware at 37° C. in a humidified atmosphere of 5% CO2 in air.
(§2) The inhibitors were dissolved in DMSO at 40 mg/ml or sterile water at 2 mg/ml, then dilutions were made in medium. The dilutions were added to micro-titer plates in 100 μl/well aliquots so that the high drug concentration for each screen was 100 μg/ml after the addition of cells to the well.
(§3) Susceptible MT-2 and CEM cells were grown and the cell population determined by a trypan blue viable cell count. The desired total number of cells were placed in a sterile, disposable 50 ml conical centrifuge tube and virus was added to give an MOI (Multiplicity of Infection) of 0.03 TCID50 /cell (Tissue Culture Infectious Dose) on MT-2 cells and approximately 0.12 TCID50 /cell on CEM cells. Fresh medium was added to adjust the cell density to 1×10^5 cells/ml, then the virus-cell suspension was incubated at 37° C. for 1 to 2 hours until plating. Uninfected controls cell were prepared in the same manner but without the addition of virus. Infected and uninfected cells were added to plates in 100 μl/well aliquots to give a starting cell number of 1×10^4 cells/well. The plates were incubated for seven days in a humidified atmosphere of 5% CO2 in air.
Reagents for colorimetric evaluation of cell viability were prepared by mixing the tetrazolium reagent, XTT, and phenazine methosulfate (PMS) to final concentrations of 200 μg/ml and 0.02 mM, respectively. Fifty microliters of the XTT-PMS solution was added to each well of the microtiter plates, then the plates were incubated in the CO2 incubator for another four hours. The lids were removed from the plates and replaced with adhesive plate sealers. The plates were read with the sealers in place in a Vmax Plate Reader® at 450 nm and 650 nm. The cytopathic effect (CPE) and percentage of cell viability were then calculated.
The activity and cytotoxicity of several other peptides were also assayed in CEM cells using the same procedure as described above. These assays also included toxicity and activity levels of both 25% and 50%.

[2] = target: T1, HIV-1 protease (Human immunodeficiency virus type 1 group M subtype B, UniProt P04585); assay: HIV-1 protease inhibition assay (gag precursor maturation, Western blot); format: biochemical
T1 construct: a gene encoding the mature HIV-1 protease of 99 amino acids; last 58 codons of bovine growth hormone, fused behind the first 144 amino acids of reverse transcriptase in the expressed precursor (C); made in house; host or cells: Escherichia coli K12 L507/pHP10D (NRRL B-18560), crude lysate
Method: A 100 μl control reaction was established containing 10 to 20 μl of crude protease, about 2 μl of the gag supernatant and final concentrations of 50 mM MES Buffer (pH 5.5), 1 mM DTT and 25 mM NaCl. Inhibition assays were performed by pre-incubating the crude protease with an inhibitory compound at room temperature for about 30 minutes before adding the gag supernatant to the reaction. Both the control and the experimental reactions were incubated from three to sixteen hours at 37° C. The reactions were then electrophoresed and blotted onto nitrocellulose filters. Monoclonal antibodies which recognize epitopes on p24 and p17 viral proteins were contacted with the filter then visualized using standard biotinylation or radionuclear techniques. Compounds which prevented the maturation of the gag polypeptide into mature viral proteins p24 and p17 were then ranked according to their HIV-1 protease inhibitory activity.
About 10 to 20 μl of the crude protease lysate was mixed with about 2 μl of the gag supernatant. The mixture was then brought to a total volume of 100 μl by the addition of distilled water, MES buffer (2-[N-Morpholino]ethanesulfonic acid) (pH 5.5 to a total concentration of 50 mM), DTT (dithiolthreitol) (to a total concentration of 1 mM) and NaCl (to a total concentration of 25 mM). This reaction mixture was mixed gently then incubated from 3 hours to overnight at 37° C.
Next, about 25 μl of the reaction was mixed with loading buffer and subjected to polyacrylamide gel electrophoresis on a 12.5% Laemmli gel under reducing conditions. The proteins were transferred onto a nitrocellulose filter using standard "Western Blot" electrophoresis at 500 mAmps for 35 minutes at room temperature. The filter was air-dried, then non-specific immunoreaction was blocked by washing the filter for 30 minutes at 4° C. in a solution of 3% non-fat dry milk powder in phosphate buffered saline (PBS).
Monoclonal antibodies against p17 and/or p24 (available from DuPont, Wilmington, Del.) were added to about 40 ml of the 3% milk/PBS solution to a final concentration of 2 μg/ml. […] The filter then was removed and washed 5 times with PBS, then the maturation of the gag gene was determined by reaction with I^125 -labeled protein A or by reaction with biotinylated anti-mouse IgG antibodies (Vecta Stain®). […]
Following the procedure, it is simple to determine the activity of the HIV-1 protease encoded on plasmid pHP10D and produced in E. coli cells. When the protease is fully active, the gag protein, encoded by plasmid pHGAG and produced in E. coli, is cleaved from the precursor gag form into mature p24 and p17 proteins, which are readily measured by their presence relative to the precursor protein. […]

[3] = tested on: MT-2 cells; format: cell-based
Method: as §1, §2, §3
Reagents for colorimetric evaluation of cell viability were prepared by mixing the tetrazolium reagent, XTT, and phenazine methosulfate (PMS) to final concentrations of 200 μg/ml and 0.02 mM, respectively. […] The plates were read with the sealers in place in a Vmax Plate Reader® at 450 nm and 650 nm. The cytopathic effect (CPE) and percentage of cell viability were then calculated.

[4] = tested on: Mo-MuLV; assay: Moloney Murine Leukemia Virus Assay, CPE inhibition in SC-1/XC cells; format: cell-based; parameters: key: 4+(>90%); 3+(>60%); 2+(>40%); 1+(>20%); -(Negative)
Method: (§4) About 3 to 5×10^3 SC-1 cells (available from the American Type Culture Collection, Rockville, Md. under the accession number ATCC CRL-1404) per well of a 96-well microtiter plate were seeded in minimal essential medium supplemented with 5% fetal bovine serum, penicillin (150 U/ml), Streptomycin (150 μg/ml) and polybrene (2 μg/ml), then infected with Mo-MuLV (Multiplicity of Infection=10 PFU/cell) the next day. The virus was allowed to adsorb to the cells for 1 hour, then medium containing serial dilutions of P-7, P-9 or medium alone was added to the cells. Pepstatin A ([…]-Val-Val-Statine-Ala-Statine) and AZT (3'-Azido-3'-deoxythymidine) were also added as controls. After incubation for 5 days (when cells were confluent) the SC-1 cells were UV irradiated for 10 seconds and 5 to 8×10^4 XC cells (ATCC CCL-165) per well were added. Generally, about two additional days of incubation were required to obtain full virus-induced cytopathic effect.

[5] = tested on: MLV; assay: MLV XC Plaque Reduction Assay - Virus Yield; format: cell-based, Murine Leukemia Virus
Method: as §4
The assay described above was also preferred to determine the virus yield. In this experiment, the supernatents were removed from the SC-1 cells four days after infection and tested for MLV titers, using the XC-plaque assay as previously described.

Compound: CC(=O)N[C@H](C(=O)N[C@@H](CC(C)C)[C@@H](O)CC(=O)N[C@@H](CC(C)C)C(=O)N[C@@H](Cc1ccccc1)C(N)=O)C(C)C [Ac-Val-Statine-Leu-Phe--NH2] (Ac-V[Sta]LF-NH2)
Inhibitory activity against the HIV protease (in words) [2]: inactive

Compound: CC(=O)N[C@@H](Cc1cccc2ccccc12)C(=O)N1CCC[C@H]1C(=O)N[C@@H](Cc1ccccc1)C(=O)N[C@H](C(=O)N[C@@H](CC(C)C)[C@@H](O)CC(=O)N[C@@H](CC(C)C)C(=O)N[C@@H](Cc1ccccc1)C(N)=O)C(C)C [P-7, Ac NA Pro Phe Val Statine Leu Phe NH2] (Ac-[1Nal]PFV[Sta]LF-NH2)
MTC50 (minimum cytotoxic drug concentration that reduces cell viability to 50%) [3]: 24.4 µg/mL
IC25 (Table V) [1]: > 10 µg/mL
MTC50 (minimum cytotoxic drug concentration that reduces cell viability to 50%) [1]: 21 µg/mL
TC50 (concentration that reduced cell viability by 50%) [1]: > 10 µg/mL

Compound: CC(C)CC(=O)N[C@H](C(=O)N[C@H](C(=O)N[C@@H](CC(C)C)[C@@H](O)CC(=O)N[C@@H](C)C(=O)N[C@@H](CC(C)C)[C@@H](O)CC(=O)O)C(C)C)C(C)C [Pepstatin A, Isovaline-Val-Val-Statine-Ala-Statine] (Isovaleryl-VV[Sta]A[Sta]-OH)
CPE inhibition score ([4]; 1.56 μg/ml): -
CPE inhibition score ([4]; 3.12 μg/ml): -
CPE inhibition score ([4]; 6.25 μg/ml): -
CPE inhibition score ([4]; 12.5 μg/ml): -
CPE inhibition score ([4]; 25 μg/ml): -
CPE inhibition score ([4]; 50 μg/ml): -
% Inhibition (virus yield) ([5]; 25 μg/ml): 52%
Yield ([5]; 25 μg/ml): 9.0 × 10^4 PFU/ML
% Inhibition (virus yield) ([5]; 50 μg/ml): 94%
Yield ([5]; 50 μg/ml, supernatants four days after infection): 1.2 × 10^4 PFU/ML

Compound: H-Pro His Pro Phe His AVA Ile Phe NH2 [P-25]
Relative Inhibition of HIV-1 Protease Activity (10^-4 M) ([2]; peptide concentration added 10^-4 M): -
Relative Inhibition of HIV-1 Protease Activity (10^-5 M) ([2]; peptide concentration added 10^-5 M): -
Relative Inhibition of HIV-1 Protease Activity (10^-6 M) ([2]; peptide concentration added 10^-6 M): -

Compound: CC(C)C[C@H](NC(=O)C[C@H](O)[C@H](CC(C)C)NC(=O)[C@@H](NC(=O)[C@H](Cc1ccccc1)NC(=O)[C@@H]1CCCN1C(=O)[C@H](Cc1ccc(N)cc1)NC(=O)[C@@H]1CCCN1)C(C)C)C(=O)N[C@@H](Cc1ccccc1)C(=O)N[C@@H](Cc1ccc(N)cc1)C(N)=O [P-1, H-Pro paF Pro Phe Val Statine Leu Phe paF NH2] (H-P[Phe(4-NH2)]PFV[Sta]LF[Phe(4-NH2)]-NH2)
MTC50 (minimum cytotoxic drug concentration that reduces cell viability to 50%) [3]: > 100 µg/mL
MTC50 (minimum cytotoxic drug concentration that reduces cell viability to 50%) [1]: > 100 µg/mL

Compound: CC(=O)N[C@@H](Cc1c[nH]c2ccccc12)C(=O)N1CCC[C@H]1C(=O)N[C@@H](Cc1ccccc1)C(=O)N[C@H](C(=O)N[C@@H](CC(C)C)[C@@H](O)CC(=O)N[C@@H](CC(C)C)C(=O)N[C@@H](Cc1ccccc1)C(N)=O)C(C)C [P-8, Ac Trp Pro Phe Val Statine Leu Phe NH2] (Ac-WPFV[Sta]LF-NH2)
IC25 (Table V) [1]: 49 µg/mL (≈ 48.7 µM)
TC50 (concentration that reduced cell viability by 50%) [1]: 66 µg/mL (≈ 65.6 µM)

Continued, in another order:

IC25 (Table V) [1]: > 100 µg/mL
Compound: COc1ccc(C[C@H](NC(C)=O)C(=O)N2CCC[C@H]2C(=O)N[C@@H](Cc2ccccc2)C(=O)N[C@H](C(=O)N[C@@H](CC(C)C)[C@@H](O)CC(=O)N[C@@H](CC(C)C)C(=O)N[C@@H](Cc2ccccc2)C(N)=O)C(C)C)cc1 [P-9, Ac YOM Pro Phe Val Statine Leu Phe NH2] (Ac-Y(Me)PFV[Sta]LF-NH2)
TC50 (concentration that reduced cell viability by 50%) [1]: > 100 µg/mL

IC25 (Table V) [1]: > 100 µg/mL
Compound: CC(=O)N[C@@H](Cc1ccc(O)cc1)C(=O)N1CCC[C@H]1C(=O)N[C@@H](Cc1ccccc1)C(=O)N[C@H](C(=O)N[C@@H](CC(C)C)[C@@H](O)CC(=O)N[C@@H](CC(C)C)C(=O)N[C@@H](Cc1ccccc1)C(N)=O)C(C)C [P-5, Ac Tyr Pro Phe Val Statine Leu Phe NH2] (Ac-YPFV[Sta]LF-NH2)
TC50 (concentration that reduced cell viability by 50%) [1]: > 100 µg/mL

IC25 (Table V) [1]: 49 µg/mL (≈ 50.7 µM)
Compound: CC(=O)N[C@@H](Cc1ccccc1)C(=O)N1CCC[C@H]1C(=O)N[C@@H](Cc1ccccc1)C(=O)N[C@H](C(=O)N[C@@H](CC(C)C)[C@@H](O)CC(=O)N[C@@H](CC(C)C)C(=O)N[C@@H](Cc1ccccc1)C(N)=O)C(C)C [P-10, Ac Phe Pro Phe Val Statine Leu Phe NH2] (Ac-FPFV[Sta]LF-NH2)
TC50 (concentration that reduced cell viability by 50%) [1]: 55 µg/mL (≈ 56.9 µM)
